Values after ≈ are worked out from the molar mass of the structure shown.
Tests used:
Candida albicans = assay: Antifungal activity against Candida albicans RCMB 05036 assessed as diameter of zone inhibition after 48 hrs by agar well diffusion assay; type: functional
[1] = Selectivity index, ratio of GI50 for mouse RAW264.7 cells to MIC for Mycobacterium aurum infected in mouse RAW264.7 cells; type: toxicity, cell-based; settings: read-out: Selectivity Index
Staphylococcus aureus = assay: Antibacterial activity against methicillin-resistant Staphylococcus aureus ATCC 33592 after 24 hrs by serial dilution method; type: functional; settings: ATCC 33592, 24 h
Enterococcus faecium = assay: Antibacterial activity against vancomycin-resistant Enterococcus faecium ATCC 700221 after 24 hrs by serial dilution method; type: functional; settings: ATCC 700221, 24 h
EKVX = assay: Growth inhibition of human EKVX cells assessed as cell growth at 10^-5 M incubated for 48 hrs by sulforhodamine B assay relative to control; type: cell-based; design: scale not given: the % may be the effect or the level left; settings: 10 µM
HCC 2998 = assay: Growth inhibition of human HCC2998 cells assessed as cell growth at 10^-5 M incubated for 48 hrs by sulforhodamine B assay relative to control; type: cell-based; design: scale not given: the % may be the effect or the level left; settings: hcc 2998, 48 h, 10 µM
SF-539 = assay: Growth inhibition of human SF539 cells assessed as cell growth at 10^-5 M incubated for 48 hrs by sulforhodamine B assay relative to control; type: cell-based; design: scale not given: the % may be the effect or the level left; settings: sf-539, 48 h, 10 µM
SK-MEL-2 = assay: Growth inhibition of human SK-MEL-2 cells assessed as cell growth at 10^-5 M incubated for 48 hrs by sulforhodamine B assay relative to control; type: cell-based; design: scale not given: the % may be the effect or the level left; settings: sk-mel-2, 48 h, 10 µM
IGROV-1 = assay: Growth inhibition of human IGROV1 cells assessed as cell growth at 10^-5 M incubated for 48 hrs by sulforhodamine B assay relative to control; type: cell-based; design: scale not given: the % may be the effect or the level left; settings: igrov-1, 48 h, 10 µM
786-0 = assay: Growth inhibition of human 786-0 cells assessed as cell growth at 10^-5 M incubated for 48 hrs by sulforhodamine B assay relative to control; type: cell-based; design: scale not given: the % may be the effect or the level left; settings: 786-0, 48 h, 10 µM
Aspergillus fumigatus [2] = assay: Potency index, ratio of amphotericin B MIC to compound MIC for antifungal activity against Aspergillus fumigatus RCMB 02568; type: functional
Aspergillus fumigatus [3] = assay: Potency index, ratio of amphotericin B MIC to compound MIC for Aspergillus fumigatus RCMB 02568; type: functional

| SMILES | diameter of the inhibition zone (DIZ) (Candida albicans) | selectivity ratio [1] | MIC (Staphylococcus aureus) | MIC (Enterococcus faecium) | Activity (EKVX) | Activity (HCC 2998) | Activity (SF-539) | Activity (SK-MEL-2) | Activity (IGROV-1) | Activity (786-0) | Ratio (Aspergillus fumigatus [2]) | Ratio (Aspergillus fumigatus [3]) |
| --- | --- | --- | --- | --- | --- | --- | --- | --- | --- | --- | --- | --- |
| CC(=O)c1sc(/N=C2\NC(=O)/C(=C3/C(=O)N(C)c4ccc(Cl)cc43)S2)nc1C | 24.1 mm | 5 | 3.9 µg/mL (≈ 9.01 µM) | 7.81 µg/mL (≈ 18 µM) | 95.78% | 112.5% | 94.05% | 99.78% | 94.36% | 106.86% | 2 | 2 |
| CCOC(=O)c1sc(/N=C2\NC(=O)/C(=C3/C(=O)N(Cc4ccccc4)c4ccc(Cl)cc43)S2)nc1C | 21.7 mm | 1.25 | – | – | 100.9% | 109.14% | 99.4% | 100.66% | 105.63% | 103.02% | – | – |

From ChEMBL document CHEMBL4308854, “Novel indole-thiazolidinone conjugates: Design, synthesis and whole-cell phenotypic evaluation as a novel class of antimicrobial agents” (Eur J Med Chem, 2018)
